Earlier results as cited in patent US5929038A, “Pharmaceutical preparations which inhibit hepatitis B virus (HBV) replication” (Choongwae Pharmaceutical Co., Ltd., priority 1992, dated 1999).

Assays:
[1] = system: toxic Amanita mushrooms' poisoning; conditions: in vivo; cited from earlier work
[2] = system: beagle dogs intoxicated by toxic mushroom extracts; conditions: cited from earlier work

## OCC1=CC(O)C2C=COC(O[C@@H]3O[C@H](CO)[C@@H](O)[C@H](O)[C@H]3O)C12 (stereo partly drawn) [Aucubin, 1,4,5, 7α-tetrahydro-5-hydroxy-17-(hydroxymethyl)cyclopenta[c]pyran-1-yl-β-D-glucopyranose]
[1]
  Detoxification activity: detoxifies toxic Amanita mushrooms' poisoning
[2]
  antidotal activity: potent antidotal activity
